Source: paper PMC10436550, “Subacute toxicity evaluations of LPM3480392 in rats, a full µ-opioid receptor biased agonist” (Frontiers in Pharmacology, 2023)

Test: Food consumption, 4-week subacute toxicity study
Format: in vivo, Sprague Dawley (SD) rats
Description: Food consumption of all surviving animals was recorded twice a week during the dosing phase and then once a week in last 2 weeks of recovery phase.

[1] = female rats, 0.6 mg/kg/day, Day 3
[2] = female rats, 0.6 mg/kg/day, Day 7
[3] = female rats, 0.6 mg/kg/day, Day 10
[4] = female rats, 0.6 mg/kg/day, Day 14
[5] = female rats, 0.6 mg/kg/day, Day 17
[6] = female rats, 0.6 mg/kg/day, Day 21
[7] = female rats, 0.6 mg/kg/day, Day 24
[8] = female rats, 0.6 mg/kg/day, Day 28
[9] = female rats, 0.6 mg/kg/day, Recovery day 20
[10] = female rats, 0.6 mg/kg/day, Recovery day 27
[11] = female rats, 1.2 mg/kg/day, Day 3
[12] = female rats, 1.2 mg/kg/day, Day 7
[13] = female rats, 1.2 mg/kg/day, Day 10
[14] = female rats, 1.2 mg/kg/day, Day 14
[15] = female rats, 1.2 mg/kg/day, Day 17
[16] = female rats, 1.2 mg/kg/day, Day 21
[17] = female rats, 1.2 mg/kg/day, Day 24
[18] = female rats, 1.2 mg/kg/day, Day 28
[19] = female rats, 1.2 mg/kg/day, Recovery day 20
[20] = female rats, 1.2 mg/kg/day, Recovery day 27
[21] = female rats, 2.4 mg/kg/day, Day 3
[22] = female rats, 2.4 mg/kg/day, Day 7
[23] = female rats, 2.4 mg/kg/day, Day 10
[24] = female rats, 2.4 mg/kg/day, Day 14
[25] = female rats, 2.4 mg/kg/day, Day 17
[26] = female rats, 2.4 mg/kg/day, Day 21
[27] = female rats, 2.4 mg/kg/day, Day 24
[28] = female rats, 2.4 mg/kg/day, Day 28
[29] = female rats, 2.4 mg/kg/day, Recovery day 20
[30] = female rats, 2.4 mg/kg/day, Recovery day 27
[31] = male rats, 0.6 mg/kg/day, Day 3
[32] = male rats, 0.6 mg/kg/day, Day 7
[33] = male rats, 0.6 mg/kg/day, Day 10
[34] = male rats, 0.6 mg/kg/day, Day 14
[35] = male rats, 0.6 mg/kg/day, Day 17
[36] = male rats, 0.6 mg/kg/day, Day 21
[37] = male rats, 0.6 mg/kg/day, Day 24
[38] = male rats, 0.6 mg/kg/day, Day 28
[39] = male rats, 0.6 mg/kg/day, Recovery day 20
[40] = male rats, 0.6 mg/kg/day, Recovery day 27
[41] = male rats, 1.2 mg/kg/day, Day 3
[42] = male rats, 1.2 mg/kg/day, Day 7
[43] = male rats, 1.2 mg/kg/day, Day 10
[44] = male rats, 1.2 mg/kg/day, Day 14
[45] = male rats, 1.2 mg/kg/day, Day 17
[46] = male rats, 1.2 mg/kg/day, Day 21
[47] = male rats, 1.2 mg/kg/day, Day 24
[48] = male rats, 1.2 mg/kg/day, Day 28
[49] = male rats, 1.2 mg/kg/day, Recovery day 20
[50] = male rats, 1.2 mg/kg/day, Recovery day 27
[51] = male rats, 2.4 mg/kg/day, Day 3
[52] = male rats, 2.4 mg/kg/day, Day 7
[53] = male rats, 2.4 mg/kg/day, Day 10
[54] = male rats, 2.4 mg/kg/day, Day 14
[55] = male rats, 2.4 mg/kg/day, Day 17
[56] = male rats, 2.4 mg/kg/day, Day 21
[57] = male rats, 2.4 mg/kg/day, Day 24
[58] = male rats, 2.4 mg/kg/day, Day 28
[59] = male rats, 2.4 mg/kg/day, Recovery day 20
[60] = male rats, 2.4 mg/kg/day, Recovery day 27

Structure (SMILES): Fc1ccc([C@]2(CCNCc3cccc(Cl)c3)CCO[C@]3(CCOC3)C2)nc1 [LPM3480392]
- Food consumption [1]: 12.6 ± 1.3 g/animal/cage/day
- Food consumption change rate [1]: −14.86%
- Food consumption [2]: 15.4 ± 1.1 g/animal/cage/day
- Food consumption change rate [2]: 1.32%
- Food consumption [3]: 15.9 ± 1.1 g/animal/cage/day
- Food consumption change rate [3]: −3.05%
- Food consumption [4]: 16.0 ± 0.5 g/animal/cage/day
- Food consumption change rate [4]: −15.79%
- Food consumption [5]: 15.8 ± 1.0 g/animal/cage/day
- Food consumption change rate [5]: 9.72%
- Food consumption [6]: 15.7 ± 0.7 g/animal/cage/day
- Food consumption change rate [6]: −1.88%
- Food consumption [7]: 14.9 ± 1.4 g/animal/cage/day
- Food consumption change rate [7]: −6.29%
- Food consumption [8]: 16.4 ± 0.9 g/animal/cage/day
- Food consumption change rate [8]: −0.61%
- Food consumption [9]: 15.9 g/animal/cage/day
- Food consumption change rate [9]: −5.36%
- Food consumption [10]: 13.3 g/animal/cage/day
- Food consumption change rate [10]: −15.82%
- Food consumption [11]: 14.9 ± 1.1 g/animal/cage/day
- Food consumption change rate [11]: 0.68%
- Food consumption [12]: 15.0 ± 1.3 g/animal/cage/day
- Food consumption change rate [12]: −1.32%
- Food consumption [13]: 15.2 ± 0.6 g/animal/cage/day
- Food consumption change rate [13]: −7.32%
- Food consumption [14]: 15.7 ± 0.9 g/animal/cage/day
- Food consumption change rate [14]: −17.37%
- Food consumption [15]: 16.6 ± 0.2 g/animal/cage/day
- Food consumption change rate [15]: 15.28%
- Food consumption [16]: 15.8 ± 1.4 g/animal/cage/day
- Food consumption change rate [16]: −1.25%
- Food consumption [17]: 16.6 ± 1.7 g/animal/cage/day
- Food consumption change rate [17]: 4.40%
- Food consumption [18]: 16.4 ± 0.8 g/animal/cage/day
- Food consumption change rate [18]: −0.61%
- Food consumption [19]: 15.1 g/animal/cage/day
- Food consumption change rate [19]: −10.12%
- Food consumption [20]: 16.7 g/animal/cage/day
- Food consumption change rate [20]: 5.70%
- Food consumption [21]: 13.0 ± 2.1 g/animal/cage/day
- Food consumption change rate [21]: −12.16%
- Food consumption [22]: 15.8 ± 1.9 g/animal/cage/day
- Food consumption change rate [22]: 3.95%
- Food consumption [23]: 15.1 ± 0.8 g/animal/cage/day
- Food consumption change rate [23]: −7.93%
- Food consumption [24]: 17.5 ± 1.0 g/animal/cage/day
- Food consumption change rate [24]: −7.89%
- Food consumption [25]: 15.1 ± 1.0 g/animal/cage/day
- Food consumption change rate [25]: 4.86%
- Food consumption [26]: 17.5 ± 1.3 g/animal/cage/day
- Food consumption change rate [26]: 9.38%
- Food consumption [27]: 15.6 ± 1.2 g/animal/cage/day
- Food consumption change rate [27]: −1.89%
- Food consumption [28]: 16.7 ± 0.8 g/animal/cage/day
- Food consumption change rate [28]: 1.21%
- Food consumption [29]: 16.4 g/animal/cage/day
- Food consumption change rate [29]: −2.38%
- Food consumption [30]: 15.0 g/animal/cage/day
- Food consumption change rate [30]: −5.06%
- Food consumption [31]: 19.7 ± 0.1 g/animal/cage/day
- Food consumption change rate [31]: −2.96%
- Food consumption [32]: 20.8 ± 0.6 g/animal/cage/day
- Food consumption change rate [32]: −8.37%
- Food consumption [33]: 23.0 ± 1.6 g/animal/cage/day
- Food consumption change rate [33]: −17.56%
- Food consumption [34]: 21.0 ± 1.3 g/animal/cage/day
- Food consumption change rate [34]: −17.32%
- Food consumption [35]: 21.1 ± 1.9 g/animal/cage/day
- Food consumption change rate [35]: −11.34%
- Food consumption [36]: 21.6 ± 0.8 g/animal/cage/day
- Food consumption change rate [36]: −9.24%
- Food consumption [37]: 20.6 ± 1.0 g/animal/cage/day
- Food consumption change rate [37]: −8.04%
- Food consumption [38]: 22.9 ± 1.2 g/animal/cage/day
- Food consumption change rate [38]: −5.76%
- Food consumption [39]: 25.2 g/animal/cage/day
- Food consumption change rate [39]: 0.40%
- Food consumption [40]: 22.3 g/animal/cage/day
- Food consumption change rate [40]: 0.90%
- Food consumption [41]: 19.2 ± 0.9 g/animal/cage/day
- Food consumption change rate [41]: −5.42%
- Food consumption [42]: 20.5 ± 0.7 g/animal/cage/day
- Food consumption change rate [42]: −9.69%
- Food consumption [43]: 20.4 ± 1.8 g/animal/cage/day
- Food consumption change rate [43]: −26.88%
- Food consumption [44]: 20.2 ± 0.7 g/animal/cage/day
- Food consumption change rate [44]: −20.47%
- Food consumption [45]: 20.5 ± 1.7 g/animal/cage/day
- Food consumption change rate [45]: −13.87%
- Food consumption [46]: 23.2 ± 1.2 g/animal/cage/day
- Food consumption change rate [46]: −2.52%
- Food consumption [47]: 22.2 ± 1.1 g/animal/cage/day
- Food consumption change rate [47]: −0.89%
- Food consumption [48]: 22.5 ± 1.3 g/animal/cage/day
- Food consumption change rate [48]: −7.41%
- Food consumption [49]: 24.5 g/animal/cage/day
- Food consumption change rate [49]: −2.39%
- Food consumption [50]: 22.6 g/animal/cage/day
- Food consumption change rate [50]: 2.26%
- Food consumption [51]: 17.8 ± 0.8 g/animal/cage/day
- Food consumption change rate [51]: −12.32%
- Food consumption [52]: 20.0 ± 2.3 g/animal/cage/day
- Food consumption change rate [52]: −11.89%
- Food consumption [53]: 20.1 ± 1.9 g/animal/cage/day
- Food consumption change rate [53]: −27.96%
- Food consumption [54]: 17.3 ± 5.2 g/animal/cage/day
- Food consumption change rate [54]: −31.89%
- Food consumption [55]: 20.1 ± 0.7 g/animal/cage/day
- Food consumption change rate [55]: −15.55%
- Food consumption [56]: 23.2 ± 1.1 g/animal/cage/day
- Food consumption change rate [56]: −2.52%
- Food consumption [57]: 22.1 ± 3.0 g/animal/cage/day
- Food consumption change rate [57]: −1.34%
- Food consumption [58]: 22.5 ± 1.9 g/animal/cage/day
- Food consumption change rate [58]: −7.41%
- Food consumption [59]: 24.0 g/animal/cage/day
- Food consumption change rate [59]: −4.38%
- Food consumption [60]: 23.8 g/animal/cage/day
- Food consumption change rate [60]: 7.69%
